Consider 20 compounds from patent US20250221998A1, “DISCOVERY OF COVALENT EGFR INHIBITOR THROUGH CYSTEINE 775” (Dana-Farber Cancer Institute, Inc., priority 2022, published 2025).

Common to all, as to format: cell-based, murine
For assay [1], the target named is EGFR L858R/C797S Ba/F3 cells (Homo sapiens, UniProt P00533, C797S/L858R, cells depend on it). Kind of assay: Ba/F3 cell proliferation (Cell Titer Glo), EGFR L858R/C797S. The note with it: 72 hours exposure, read-out: L858R/C797S (μM), inhibitory activity against EGFR mutants. The gist of the method: (§1)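 Ba/F3 cells stably expressing retrovirally transduced EGFR L858R, L858R/C797S or L858R/C775S, puromycin-selected. Compound exposure 72 hours in triplicate; viability by Cell Titer Glo ATP luminescence.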

The target in assay [2] is EGFR L858R/C775S Ba/F3 cells (Homo sapiens, UniProt P00533, C775S/L858R, cells depend on it). Put plainly: Ba/F3 cell proliferation (Cell Titer Glo), EGFR L858R/C775S. The note with it: 72 hours exposure, read-out: L858R/C775S (μM), inhibitory activity against EGFR mutants. An excerpt: The EGFR mutant L858R Ba/F3 cells have been previously described (Zhou, W., et al. Nature 462, 2009, 1070-1074). The EGFR C797S and C775S mutations were introduced via site directed mutagenesis using the Quick Change Site-Directed Mutagenesis kit into a vector containing EGFR L858R mutation (Stratagene; La Jolla, CA) according to the manufacturer's instructions. All constructs were confirmed by DNA sequencing. The constructs were then shuttled into the retroviral vector JP1540 by either using the Cre-recombination system (Agilent Technologies, Santa Clara, CA) or the In-fusion HD Cloning kit (Takara Bio USA, Inc.; Mountain view, CA). Ba/F3 cells were then infected with retrovirus per standard protocols, as described previously (Zhou, et al, Nature 2009). Stable clones were obtained by selection in puromycin (2 ug/ml). All BaF/3 mutant cells were maintained in RPMI 1640 (Cellgro; Mediatech Inc., Herndon, CA) supplemented with 10% FBS, 100 units/mL penicillin, 100 units/mL streptomycin.
Growth and inhibition of growth was assessed by the Cell Titer Glo assay (Promega, Madison, WI) and was performed according to the manufacturer's instructions. The Cell Titer Glo assay is a luminescence-based method used to determine the number of viable cells based on quantitation of the ATP present, which is directly proportional to the amount of metabolically active cells present. Ba/F3 cells of different EGFR genotypes were exposed to compounds for 72 hours and the number of cells used per experiment was determined empirically as has been previously established (Zhou, et al., Nature 2009). All experimental points were set up in triplicates in 384-well plates. […] The curves were fitted using a non-linear regression model with a sigmoidal dose response.
For inhibitory activity against EGFR mutants, the following designations are used: ≤0·25 μM=A, 0·25 μM˜0.5 μM=B, 0.5 μM˜2.5 μM=C, ≥2.5 μM=D.
A general note: In ATP-based viability assays light output follows the ATP content of the culture.

Assay [3] addresses EGFR mutant L858R Ba/F3 cells (Homo sapiens, UniProt P00533, L858R, cells depend on it). Kind of assay: Ba/F3 cell proliferation (Cell Titer Glo), EGFR L858R. Conditions: 72 hours exposure, read-out: L858R BaF3 (μM), inhibitory activity against EGFR mutants. The gist of the method: as §1

The structures appear in SMILES notation.

Sequence of EGFR L858R/C797S Ba/F3 cells (P00533 whole entry C797S/L858R): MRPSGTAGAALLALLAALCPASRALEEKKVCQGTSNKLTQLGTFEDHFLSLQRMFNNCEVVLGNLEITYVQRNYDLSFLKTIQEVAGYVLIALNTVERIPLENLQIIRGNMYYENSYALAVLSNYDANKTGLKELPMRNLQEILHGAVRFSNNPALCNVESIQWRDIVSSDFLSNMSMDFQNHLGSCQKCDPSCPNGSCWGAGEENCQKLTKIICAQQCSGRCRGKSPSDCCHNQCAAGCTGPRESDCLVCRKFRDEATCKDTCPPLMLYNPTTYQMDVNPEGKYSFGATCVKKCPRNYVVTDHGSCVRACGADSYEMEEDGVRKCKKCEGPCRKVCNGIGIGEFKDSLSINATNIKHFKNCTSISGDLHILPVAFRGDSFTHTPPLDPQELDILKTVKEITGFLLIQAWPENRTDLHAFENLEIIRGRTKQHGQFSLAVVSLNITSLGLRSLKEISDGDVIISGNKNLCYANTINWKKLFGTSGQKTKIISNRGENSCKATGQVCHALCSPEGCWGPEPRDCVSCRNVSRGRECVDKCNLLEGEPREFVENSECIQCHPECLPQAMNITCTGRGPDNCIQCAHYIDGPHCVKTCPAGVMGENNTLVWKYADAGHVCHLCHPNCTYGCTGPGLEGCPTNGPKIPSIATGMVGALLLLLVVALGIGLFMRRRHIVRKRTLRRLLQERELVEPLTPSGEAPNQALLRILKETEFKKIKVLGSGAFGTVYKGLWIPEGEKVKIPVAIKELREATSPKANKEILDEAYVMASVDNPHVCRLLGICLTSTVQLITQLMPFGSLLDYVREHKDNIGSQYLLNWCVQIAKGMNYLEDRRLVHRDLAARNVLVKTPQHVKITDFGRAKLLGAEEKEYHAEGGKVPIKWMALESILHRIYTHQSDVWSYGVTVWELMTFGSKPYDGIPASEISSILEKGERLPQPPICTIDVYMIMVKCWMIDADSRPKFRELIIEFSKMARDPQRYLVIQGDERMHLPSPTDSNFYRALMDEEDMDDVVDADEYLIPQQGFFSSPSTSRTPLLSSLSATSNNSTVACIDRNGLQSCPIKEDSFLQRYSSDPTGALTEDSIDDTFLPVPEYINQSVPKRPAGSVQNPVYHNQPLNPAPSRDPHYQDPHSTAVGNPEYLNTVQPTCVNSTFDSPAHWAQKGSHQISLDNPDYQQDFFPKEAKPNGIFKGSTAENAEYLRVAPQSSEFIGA
Sequence of EGFR mutant L858R Ba/F3 cells (P00533 whole entry L858R): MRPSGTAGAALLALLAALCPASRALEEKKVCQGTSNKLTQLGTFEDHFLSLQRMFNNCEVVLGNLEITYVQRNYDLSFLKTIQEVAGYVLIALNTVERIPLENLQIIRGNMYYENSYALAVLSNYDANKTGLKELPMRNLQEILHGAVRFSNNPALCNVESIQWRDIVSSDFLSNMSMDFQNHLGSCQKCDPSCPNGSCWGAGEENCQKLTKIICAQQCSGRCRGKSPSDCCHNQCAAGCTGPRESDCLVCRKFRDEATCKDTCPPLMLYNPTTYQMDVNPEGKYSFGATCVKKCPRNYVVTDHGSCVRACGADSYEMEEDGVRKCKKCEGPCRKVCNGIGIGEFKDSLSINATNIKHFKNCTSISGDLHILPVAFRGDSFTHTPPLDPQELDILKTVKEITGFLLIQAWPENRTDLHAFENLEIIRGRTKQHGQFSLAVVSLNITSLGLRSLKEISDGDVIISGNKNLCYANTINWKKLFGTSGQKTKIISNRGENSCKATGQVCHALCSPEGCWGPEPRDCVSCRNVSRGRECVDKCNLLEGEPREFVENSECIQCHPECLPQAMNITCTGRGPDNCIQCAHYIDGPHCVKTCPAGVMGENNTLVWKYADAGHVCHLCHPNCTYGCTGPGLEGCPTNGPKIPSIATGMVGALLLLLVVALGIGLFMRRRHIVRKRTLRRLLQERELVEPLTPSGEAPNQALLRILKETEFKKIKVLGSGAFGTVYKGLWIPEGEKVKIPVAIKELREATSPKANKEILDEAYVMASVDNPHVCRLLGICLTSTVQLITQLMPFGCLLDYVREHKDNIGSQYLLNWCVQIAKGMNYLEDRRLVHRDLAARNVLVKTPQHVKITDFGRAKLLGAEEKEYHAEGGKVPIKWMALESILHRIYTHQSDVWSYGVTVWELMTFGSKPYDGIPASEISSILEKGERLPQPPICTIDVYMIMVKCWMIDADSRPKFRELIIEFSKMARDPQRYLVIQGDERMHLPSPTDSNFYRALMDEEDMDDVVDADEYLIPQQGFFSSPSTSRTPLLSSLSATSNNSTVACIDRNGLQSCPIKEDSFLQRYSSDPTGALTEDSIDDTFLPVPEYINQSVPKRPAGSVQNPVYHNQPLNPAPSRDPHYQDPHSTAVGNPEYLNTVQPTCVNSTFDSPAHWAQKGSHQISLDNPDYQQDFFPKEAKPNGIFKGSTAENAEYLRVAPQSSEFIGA
Sequence of EGFR L858R/C775S Ba/F3 cells (P00533 whole entry C775S/L858R, the tested form may be a part): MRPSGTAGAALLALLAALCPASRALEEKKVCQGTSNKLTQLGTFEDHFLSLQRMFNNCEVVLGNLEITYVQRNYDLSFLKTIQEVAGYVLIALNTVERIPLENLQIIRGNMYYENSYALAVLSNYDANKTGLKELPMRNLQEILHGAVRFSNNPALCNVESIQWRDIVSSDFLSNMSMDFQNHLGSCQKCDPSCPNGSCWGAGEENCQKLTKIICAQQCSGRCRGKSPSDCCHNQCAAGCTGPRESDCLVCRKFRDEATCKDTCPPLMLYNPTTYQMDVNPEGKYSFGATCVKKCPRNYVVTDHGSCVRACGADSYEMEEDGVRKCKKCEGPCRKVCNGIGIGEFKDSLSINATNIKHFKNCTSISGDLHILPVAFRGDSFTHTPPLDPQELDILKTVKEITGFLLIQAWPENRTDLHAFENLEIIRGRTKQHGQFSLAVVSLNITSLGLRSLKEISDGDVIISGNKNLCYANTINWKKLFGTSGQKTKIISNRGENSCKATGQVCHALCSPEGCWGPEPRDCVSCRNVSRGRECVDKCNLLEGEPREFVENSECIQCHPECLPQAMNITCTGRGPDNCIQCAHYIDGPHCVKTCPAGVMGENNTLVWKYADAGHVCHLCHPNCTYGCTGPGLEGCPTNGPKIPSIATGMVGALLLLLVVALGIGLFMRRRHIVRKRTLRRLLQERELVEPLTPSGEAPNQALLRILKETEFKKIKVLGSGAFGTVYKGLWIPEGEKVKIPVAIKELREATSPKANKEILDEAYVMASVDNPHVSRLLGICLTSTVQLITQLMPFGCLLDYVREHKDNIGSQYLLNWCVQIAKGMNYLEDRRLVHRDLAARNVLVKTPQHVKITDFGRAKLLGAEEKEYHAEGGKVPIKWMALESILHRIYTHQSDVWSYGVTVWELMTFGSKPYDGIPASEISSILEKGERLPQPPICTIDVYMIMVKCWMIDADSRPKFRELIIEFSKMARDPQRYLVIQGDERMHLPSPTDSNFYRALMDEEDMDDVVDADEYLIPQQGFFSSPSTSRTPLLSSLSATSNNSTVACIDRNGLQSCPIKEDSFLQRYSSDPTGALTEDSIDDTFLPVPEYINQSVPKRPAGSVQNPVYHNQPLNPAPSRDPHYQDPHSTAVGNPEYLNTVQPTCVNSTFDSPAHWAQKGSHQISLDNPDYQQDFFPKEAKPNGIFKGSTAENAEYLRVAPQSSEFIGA

`C=CC(=O)Nc1ccccc1Oc1cc2cnc(Nc3ccc(N4CCN(C)CC4)nc3)nc2n(C)c1=O` [Compound 005]: the GI50 in assay [1] is at least 2.5 µM; in assay [2], at least 2.5 µM; in assay [3] it was 0.5 to 2.5 µM.

Take `C#CC(=O)Nc1ccccc1Oc1cc2cnc(Nc3ccc(N4CCN(C)CC4)cc3)nc2n(C)c1=O` [Compound 006, N-[2-[8-methyl-2-[4-(4-methylpiperazin-1-yl)anilino]-7-oxo-pyrido[2,3-d]pyrimidin-6-yl]oxyphenyl]prop-2-ynamide]: the GI50 is at least 2.5 µM in assay [1], at least 2.5 µM in assay [2] and 0.25 to 0.5 µM in assay [3].

For the compound `C=CC(=O)Nc1ccccc1Oc1cc2cnc(Nc3ccc(N4CCN(C)CC4)cc3OC)nc2n(C)c1=O` [Compound 004], the GI50 in assay [1] is 0.5 to 2.5 µM; in assay [2] it was at least 2.5 µM; in assay [3] it was 0.25 to 0.5 µM.

On to `C=CC(=O)N1CCN(c2cc3cnc(Nc4ccc(N5CCN(C)CC5)cc4)nc3n(C)c2=O)CC1` [Compound 009, 8-methyl-2-[4-(4-methylpiperazin-1-yl)anilino]-6-(4-prop-2-enoylpiperazin-1-yl)pyrido[2,3-d]pyrimidin-7-one], for which the GI50 in assay [1], in assay [2] and in assay [3] was at least 2.5 µM throughout.

`C=CC(=O)Nc1ccccc1Oc1cc2cnc(Nc3ccc(N4CCN(C)CC4)cc3)nc2n(-c2cccc(NC(C)=O)c2)c1=O` [Compound 008]: the GI50 in assay [1] was at least 2.5 µM; in assay [2], at least 2.5 µM; in assay [3] it was 0.5 to 2.5 µM.

For the compound `C=CC(=O)N1CCc2cccc(Oc3cc4cnc(Nc5ccc(N6CCN(C)CC6)cc5)nc4n(C)c3=O)c21` [Compound 003], the GI50 in assay [1] was at least 2.5 µM; in assay [2], 0.5 to 2.5 µM; in assay [3], 0.5 to 2.5 µM.

In the case of `C=CC(=O)Nc1ccccc1Oc1cc2cnc(Nc3ccc(N4CCN(C)CC4)cc3)nc2n(C2CCCN(C(C)=O)C2)c1=O` (centres unmarked) [Compound 007, N-[2-[8-(1-acetyl-3-piperidyl)-2-[4-(4-methylpiperazin-1-yl)anilino]-7-oxo-pyrido[2,3-d]pyrimidin-6-yl]oxyphenyl]prop-2-enamide], the GI50 in assay [1] is at least 2.5 µM; in assay [2] it was at least 2.5 µM; in assay [3], 0.25 to 0.5 µM.

Turning to `C=CC(=O)N1CCN(c2cc3cnc(Nc4ccc(N5CCN(C)CC5)cc4)nc3n(C)c2=O)c2ccccc21` [Compound 010, 8-methyl-2-[4-(4-methylpiperazin-1-yl)anilino]-6-(4-prop-2-enoyl-2,3-dihydroquinoxalin-1-yl)pyrido[2,3-d]pyrimidin-7-one], the GI50 in assay [1] is at most 0.25 µM; in assay [2], at least 2.5 µM; in assay [3] it was at most 0.25 µM.

On to `C=CC(=O)Nc1ccccc1Oc1cc2cnc(Nc3ccc(N4CCN(C)CC4)cc3)nc2n(C)c1=O` [Compound 002, N-[2-[8-methyl-2-[4-(4-methylpiperazin-1-yl)anilino]-7-oxo-pyrido[2,3-d]pyrimidin-6-yl]oxyphenyl]prop-2-enamide], for which the GI50 in assay [1] was 0.25 to 0.5 µM; in assay [2], at least 2.5 µM; in assay [3], at most 0.25 µM.

In the case of `C=CC(=O)N1CCN(c2cc3cnc(Nc4ccc(OCCN(C)C)cc4)nc3n(C3CC(F)(F)C3)c2=O)c2cccc(C)c21` [Compound 055, 8-(3,3-difluorocyclobutyl)-2-[4-[2-(dimethylamino)ethoxy]anilino]-6-(5-methyl-4-prop-2-enoyl-2,3-dihydroquinoxalin-1-yl)pyrido[2,3-d]pyrimidin-7-one], the GI50 in assay [1] and in assay [3] was at most 0.25 µM in each case.

In the case of `C=CC(=O)N1CCN(c2cc3cnc(Nc4ccccc4)nc3n([C@H]3C[C@H](O)C3)c2=O)c2cccc(C)c21` [Compound 070], the GI50 in assay [1] and in assay [3] was at most 0.25 µM throughout.

`C=CC(=O)N1CCN(c2cc3cnc(Nc4ccc(N5CCN(C)CC5)c(F)c4)nc3n(C)c2=O)c2cccc(C)c21` [Compound 040]: the GI50 in assay [1] and in assay [3] was at most 0.25 µM each time.

Turning to `C=CC(=O)N1CCN(c2cc3cnc(NC4CC4)nc3n(C3CCOC3)c2=O)c2cccc(C)c21` (centres unmarked) [Compound 096, 2-(cyclopropylamino)-6-(5-methyl-4-prop-2-enoyl-2,3-dihydroquinoxalin-1-yl)-8-tetrahydrofuran-3-yl-pyrido[2,3-d]pyrimidin-7-one], the GI50 in assay [1] and in assay [3] was at most 0.25 µM throughout.

In the case of `C=CC(=O)N1CCN(c2cc3cnc(NC4CC4)nc3n(-c3ccc(OCCN(C)C)cc3)c2=O)c2cccc(C)c21` [Compound 082, 2-(cyclopropylamino)-8-[4-[2-(dimethylamino)ethoxy]phenyl]-6-(5-methyl-4-prop-2-enoyl-2,3-dihydroquinoxalin-1-yl)pyrido[2,3-d]pyrimidin-7-one], the GI50 in assay [1] and in assay [3] was at most 0.25 µM throughout.

With `C=CC(=O)N1CCN(c2cc3cnc(Nc4ccc(OCCN(C)C)cc4)nc3n(CC(C)(C)O)c2=O)c2cccc(C)c21` [Compound 058, 2-[4-[2-(dimethylamino)ethoxy]anilino]-8-(2-hydroxy-2-methyl-propyl)-6-(5-methyl-4-prop-2-enoyl-2,3-dihydroquinoxalin-1-yl)pyrido[2,3-d]pyrimidin-7-one], the GI50 in assay [1] and in assay [3] was at most 0.25 µM in each case.

Regarding `C=CC(=O)N1CCN(c2cc3cnc(Nc4ccc(CN5CCN(C)CC5)cc4)nc3n(C)c2=O)c2cccc(C)c21` [Compound 050], the GI50 in assay [1] and in assay [3] was at most 0.25 µM each time.

Regarding `C=CC(=O)Nc1ccccc1Cc1cc2cnc(Nc3ccc(N4CCN(C)CC4)cc3)nc2n(C)c1=O` [Compound 001, N-[2-[[8-methyl-2-[4-(4-methylpiperazin-1-yl)anilino]-7-oxo-pyrido[2,3-d]pyrimidin-6-yl]methyl]phenyl]prop-2-enamide], the GI50 in assay [1] was in the range of 0.5 to 2.5 µM; in assay [2] it was 0.5 to 2.5 µM; in assay [3], 0.25 to 0.5 µM.

With `C=CC(=O)N1CCN(c2cc3cnc(Nc4ccc(N5CCN(C)CC5)cc4)nc3n(C)c2=O)C2CC21` (centres unmarked) [Compound 024, 8-methyl-2-[4-(4-methylpiperazin-1-yl)anilino]-6-(5-prop-2-enoyl-2,5-diazabicyclo[4.1.0]heptan-2-yl)pyrido[2,3-d]pyrimidin-7-one], the GI50 in assay [1] and in assay [3] was at least 2.5 µM throughout.

For the compound `C=C(F)C(=O)NC1CCN(c2cc3cnc(Nc4cnn(CCO)c4)nc3n(C)c2=O)CC1` [Compound 018], the GI50 in assay [1] and in assay [3] was at least 2.5 µM each time.

`C=CC(=O)N1CCN(c2cc3cnc(Nc4ccc(N5CCN(C)CC5)cc4)nc3n(C3CC(O)C3)c2=O)c2cccc(C)c21` (centres unmarked) [Compound 046, 8-(3-hydroxycyclobutyl)-2-[4-(4-methylpiperazin-1-yl)anilino]-6-(5-methyl-4-prop-2-enoyl-2,3-dihydroquinoxalin-1-yl)pyrido[2,3-d]pyrimidin-7-one]: the GI50 in assay [1] and in assay [3] was at most 0.25 µM in each case.
